This note sets out measurements from patent US8076374B2 (Eli Lilly and Company, priority 2005, dated 2011).

The test has as its target cloned human glucagon receptor (Homo sapiens, UniProt P47871). The test is described as follows: Glucagon Receptor (hGlucR) Binding Assay.

cloned human glucagon receptor, sequence (P47871 26-477): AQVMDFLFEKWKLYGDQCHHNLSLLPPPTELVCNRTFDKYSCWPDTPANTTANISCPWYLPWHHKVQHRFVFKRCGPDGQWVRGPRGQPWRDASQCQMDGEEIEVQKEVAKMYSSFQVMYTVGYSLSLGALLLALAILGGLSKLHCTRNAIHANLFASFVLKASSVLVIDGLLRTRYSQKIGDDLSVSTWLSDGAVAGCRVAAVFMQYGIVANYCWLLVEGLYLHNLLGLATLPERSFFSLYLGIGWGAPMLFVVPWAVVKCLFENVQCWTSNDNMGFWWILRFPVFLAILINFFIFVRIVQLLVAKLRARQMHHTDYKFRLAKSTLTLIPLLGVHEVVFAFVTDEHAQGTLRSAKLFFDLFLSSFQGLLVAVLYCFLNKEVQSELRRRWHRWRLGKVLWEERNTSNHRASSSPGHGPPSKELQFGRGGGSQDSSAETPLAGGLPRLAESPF
Procedure: This plasmid DNA is transfected into 293 HEK cells and selected with 200 μg/mL Hygromycin.
Crude plasma membranes are prepared using cells from suspension culture. The cells are lysed on ice in hypotonic buffer containing 25 mM Tris HCL, pH 7.5, 1 mM MgCl2, DNAsel, 20 u/mL, and Roche Complete Inhibitors-without EDTA. The cell suspension is homogenized with a glass dounce homogenizer using a Teflon pestle for 25 strokes. The homogenate is centrifuged at 4 degrees C. at 1800×g for 15 mins. The supernate is collected and the pellet is resuspended in hypotonic buffer and rehomogenized. The mixture is centrifuged at 1800×g for 15 mins. The second supernate is combined with the first supernate. The combined supernates are recentrifuged at 1800×g for 15 mins to clarify. The clarified supernate is transferred to high speed tubes and centrifuged at 25000×g for 30 minutes at 4 degrees C. The membrane pellet is resuspended in homogenization buffer and stored as frozen aliquots at −80 degree C. freezer until needed.
The specific activity is 2200 Ci/mmol.
The binding buffer contains 25 mM Hepes, pH 7.4, 2.5 mM CaCl2, 1 mM MgCl2, 0.1% fatty acid free BSA, (ICN), 0.003% tween-20, and Roche Complete Inhibitors without EDTA. […] Test compounds are dissolved in DMSO and serially diluted in DMSO. […] Plates are read with a MicroBeta after 14 hours of settling time at room temp.

Broadly, the Ki is the equilibrium dissociation constant of an inhibitor or competing ligand from its target. As for `C=CCC(CC=C)(COc1cc(C)c(-c2ccc(C(F)(F)F)cc2)c(C)c1)c1ccc(C(=O)NCCC(=O)O)cc1`, the affinity corresponds to a Ki of 87 nM.

`Cc1cc(OCC(c2ccc(C(=O)NCCC(=O)O)cc2)C(C)C)cc(C)c1-c1ccc(C(C)(C)C)cc1` (centres unmarked) registered a Ki of 61 nM.
